Molecules are shown by their SMILES.

Usually IC50 stands for the point on the concentration scale where inhibition reaches its midpoint.

This assay can be described thus: Binding affinity at delta opioid receptor in guinea pig brain by [3H]c[D-Pen2, p-Cl-Phe4, D-Pen5]-enkephalin displacement.
`CC[C@H](C)[C@@H]1NC(=O)[C@H](CCCN=C(N)N)NC(=O)[C@H](CCCN=C(N)N)NC(=O)[C@H](NC(=O)[C@H](Cc2ccccc2)NC(=O)CNC(=O)CNC(=O)[C@@H](N)Cc2ccc(O)cc2)CSSC[C@@H](C(N)=O)NC(=O)[C@@H]2CCCN2C(=O)[C@H](CCCN=C(N)N)NC1=O` had an IC50 of 1000 nM.
Turning to `CC[C@H](C)[C@@H]1NC(=O)[C@H](CCCNC(=N)N)NC(=O)[C@H](CCCNC(=N)N)NC(=O)[C@@H](NC(=O)[C@H](Cc2ccccc2)NC(=O)CNC(=O)CNC(=O)[C@@H](N)Cc2ccc(O)cc2)CSSC[C@@H](C(N)=O)NC(=O)[C@@H]2CCCN2C(=O)[C@H](CCCNC(=N)N)NC1=O`, the concentration for half-maximal inhibition (IC50) was determined as 1740 nM.
As to `CC[C@H](C)[C@@H]1NC(=O)[C@H](CCCN=C(N)N)NC(=O)[C@H](CCCN=C(N)N)NC(=O)[C@@H](NC(=O)[C@H](Cc2ccccc2)NC(=O)CNC(=O)CNC(=O)[C@@H](N)Cc2ccc(O)cc2)C(C)(C)SSC(C)(C)[C@@H](C(N)=O)NC(=O)[C@@H]2CCCN2C(=O)[C@H](CCCN=C(N)N)NC1=O`, the IC50 stood at 245 nM.
In turn, `CC[C@H](C)[C@@H]1NC(=O)[C@H](CCCN=C(N)N)NC(=O)[C@H](CCCN=C(N)N)NC(=O)[C@@H](NC(=O)[C@H](Cc2ccccc2)NC(=O)CNC(=O)CNC(=O)[C@@H](N)Cc2ccc(O)cc2)CSSC[C@H](C(N)=O)NC(=O)[C@@H]2CCCN2C(=O)[C@H](CCCN=C(N)N)NC1=O` yielded an IC50 of 14 nM.
Take `CC[C@H](C)[C@@H]1NC(=O)[C@H](CCCN=C(N)N)NC(=O)[C@H](CCCN=C(N)N)NC(=O)[C@@H](NC(=O)[C@H](Cc2ccccc2)NC(=O)CNC(=O)CNC(=O)[C@@H](N)Cc2ccc(O)cc2)CSSC(C)(C)[C@@H](C(N)=O)NC(=O)[C@@H]2CCCN2C(=O)[C@H](CCCN=C(N)N)NC1=O` [Tyr-Gly-Gly-Phe-D-Cys-Arg-Arg-Ile-Arg-Pro-Cys-NH2]: the IC50 was 16 nM. The IC50 values of the last two molecules are within 1.5-fold of each other.
Take `CC[C@H](C)[C@@H]1NC(=O)[C@H](CCCN=C(N)N)NC(=O)[C@H](CCCN=C(N)N)NC(=O)[C@H](NC(=O)[C@H](Cc2ccccc2)NC(=O)CNC(=O)CNC(=O)[C@@H](N)Cc2ccc(O)cc2)CSSC[C@H](C(N)=O)NC(=O)[C@@H]2CCCN2C(=O)[C@H](CCCN=C(N)N)NC1=O` [Tyr-Gly-Gly-Phe-D-Cys-Arg-Arg-Ile-Arg-Pro-D-Cys-NH2]: the half-maximal inhibitory concentration (IC50) came to 1030 nM. This IC50 lies about 64-fold higher than the previous one.
`CC[C@H](C)[C@@H]1NC(=O)[C@H](CCCN=C(N)N)NC(=O)[C@H](CCCN=C(N)N)NC(=O)[C@H](NC(=O)[C@H](Cc2ccccc2)NC(=O)CNC(=O)CNC(=O)[C@@H](N)Cc2ccc(O)cc2)CSSC(C)(C)[C@H](C(N)=O)NC(=O)[C@@H]2CCCN2C(=O)[C@H](CCCN=C(N)N)NC1=O` [Tyr-Gly-Gly-Phe-D-Cys-Arg-Arg-Ile-Arg-Pro-D-Pen-NH2] showed an IC50 of 1370 nM.
Under `CC[C@H](C)[C@@H]1NC(=O)[C@H](CCCN=C(N)N)NC(=O)[C@H](CCCN=C(N)N)NC(=O)[C@@H](NC(=O)[C@H](Cc2ccccc2)NC(=O)CNC(=O)CNC(=O)[C@@H](N)Cc2ccc(O)cc2)CSSC(C)(C)[C@H](C(N)=O)NC(=O)[C@@H]2CCCN2C(=O)[C@H](CCCN=C(N)N)NC1=O` [Tyr-Gly-Gly-Phe-D-Cys-Arg-Arg-Ile-Arg-Pro-Pen-NH2] stands 319 nM; under `CC[C@H](C)[C@@H]1NC(=O)[C@H](CCCN=C(N)N)NC(=O)[C@H](CCCN=C(N)N)NC(=O)[C@@H](NC(=O)[C@H](Cc2ccccc2)NC(=O)CNC(=O)CNC(=O)[C@@H](N)Cc2ccc(O)cc2)C(C)(C)SSC[C@@H](C(N)=O)NC(=O)[C@@H]2CCCN2C(=O)[C@H](CCCN=C(N)N)NC1=O` [Tyr-Gly-Gly-Phe-D-Pen-Arg-Arg-Ile-Arg-Pro-Cys-NH2], 242 nM; under `CC[C@H](C)[C@@H]1NC(=O)[C@H](CCCN=C(N)N)NC(=O)[C@H](CCCN=C(N)N)NC(=O)[C@H](NC(=O)[C@H](Cc2ccccc2)NC(=O)CNC(=O)CNC(=O)[C@@H](N)Cc2ccc(O)cc2)C(C)(C)SSC[C@H](C(N)=O)NC(=O)[C@@H]2CCCN2C(=O)[C@H](CCCN=C(N)N)NC1=O` [Tyr-Gly-Gly-Phe-D-Pen-Arg-Arg-Ile-Arg-Pro-D-Cys-NH2], 390 nM.
Then `CC[C@H](C)[C@@H]1NC(=O)[C@H](CCCN=C(N)N)NC(=O)[C@H](CCCN=C(N)N)NC(=O)[C@H](NC(=O)[C@H](Cc2ccccc2)NC(=O)CNC(=O)CNC(=O)[C@@H](N)Cc2ccc(O)cc2)C(C)(C)SSC(C)(C)[C@H](C(N)=O)NC(=O)[C@@H]2CCCN2C(=O)[C@H](CCCN=C(N)N)NC1=O` [Tyr-Gly-Gly-Phe-D-Pen-Arg-Arg-Ile-Arg-Pro-D-Pen-NH2], with 1910 nM; and `CC[C@H](C)[C@@H]1NC(=O)[C@H](CCCN=C(N)N)NC(=O)[C@H](CCCN=C(N)N)NC(=O)[C@H](NC(=O)[C@H](Cc2ccccc2)NC(=O)CNC(=O)CNC(=O)[C@@H](N)Cc2ccc(O)cc2)C(C)(C)SSC[C@@H](C(N)=O)NC(=O)[C@@H]2CCCN2C(=O)[C@H](CCCN=C(N)N)NC1=O` [Tyr-Gly-Gly-Phe-D-Pen-Arg-Arg-Ile-Arg-Pro-Pen-NH2], with 2000 nM; and `CC[C@H](C)[C@@H]1NC(=O)[C@H](CCCN=C(N)N)NC(=O)[C@H](CCCN=C(N)N)NC(=O)[C@H](NC(=O)[C@H](Cc2ccccc2)NC(=O)CNC(=O)CNC(=O)[C@@H](N)Cc2ccc(O)cc2)C(C)(C)SSC(C)(C)[C@@H](C(N)=O)NC(=O)[C@@H]2CCCN2C(=O)[C@H](CCCN=C(N)N)NC1=O` [Tyr-Gly-Gly-Phe-Pen-Arg-Arg-Ile-Arg-Pro-Cys-NH2], with 1360 nM.
Molecule `CC[C@H](C)[C@@H]1NC(=O)[C@H](CCCN=C(N)N)NC(=O)[C@H](CCCN=C(N)N)NC(=O)[C@@H](NC(=O)[C@H](Cc2ccccc2)NC(=O)CNC(=O)CNC(=O)[C@@H](N)Cc2ccc(O)cc2)C(C)(C)SSC(C)(C)[C@H](C(N)=O)NC(=O)[C@@H]2CCCN2C(=O)[C@H](CCCN=C(N)N)NC1=O` [Tyr-Gly-Gly-Phe-Pen-Arg-Arg-Ile-Arg-Pro-D-Cys-NH2] registered an IC50 of 717 nM. This IC50 is about 1.9-fold lower than that of the molecule before.
In turn, `CC[C@H](C)[C@@H]1NC(=O)[C@H](CCCN=C(N)N)NC(=O)[C@H](CCCN=C(N)N)NC(=O)[C@@H](NC(=O)[C@H](Cc2ccccc2)NC(=O)CNC(=O)CNC(=O)[C@@H](N)Cc2ccc(O)cc2)C(C)(C)SSC[C@H](C(N)=O)NC(=O)[C@@H]2CCCN2C(=O)[C@H](CCCN=C(N)N)NC1=O` [Tyr-Gly-Gly-Phe-Pen-Arg-Arg-Ile-Arg-Pro-D-Pen-NH2] had an IC50 of 232 nM. Against the preceding molecule, the IC50 is about 3.1-fold lower.

The values above are taken from BindingDB's records for doi:10.1021/jm00049a010 (University of Arizona, 1994).
